Measured values: US11331375B2, “Compositions and methods for regulating leukocyte adhesion” (University of Virginia Patent Foundation, priority 2015, dated 2022)

What was measured:
VCAM1 = VCAM1 expression in isolated mesenteric venules; format: cell-based, mouse; conditions: EC Panx1 KO venules, TNFα 50 ng/mL, exogenous ATP
Protocol: Male VECadER^T2+/Panx1^fl/fl mice (Tamoxifen or Peanut oil injected) were euthanized by CO2 asphyxiation and subsequent cervical dislocation. Prior to tissue harvesting, fixation was performed by perfusing room temperature 4% paraformaldehyde (PFA) made in PBS through the heart. The mesentery was immediately excised and 2nd order venules were dissected free of surrounding fat and connective tissue and place in 4% PFA for 30 minutes before transfer to 70% ethanol for paraffin embedding. Paraffin sections (4-5 μm in thickness) were de-paraffinized and processed for immunocytochemistry as previously described^10. […]
Following stimulation with TNFα (in vitro: 10 ng/mL; ex vivo: 50 ng/mL), confluent endothelial cell monolayers or isolated mesenteric venules were homogenized in ice cold Triton extraction buffer (50 mM Tris-HCL, 150 mM NaCl , 5 mM EDTA, 1% deoxycholate, 1% NP-40 and 1% Triton-X100 in phosphate buffered saline and pH adjusted to 7.4) containing protease and phosphatase inhibitors. […] Protein concentration was quantified using the BCA method. […] Membranes were then washed and incubated with LiCOR secondary antibodies (1:10,000) and visualized and quantitated using LiCOR Odyssey. […] Data are expressed as mean±SEM (n=3 independent experiments).

HUVEC = test: In vitro ATP release assay (luciferin:luciferase), HUVEC; format: cell-based, human; conditions: HUVEC
Protocol: (§1) In vitro Human arterial and venous ECs were seeded in 24-well plates pre-coated with 0.2% gelatin and grown to confluency. On the day of experiment, the media was removed from each well and cells were carefully washed twice with warm serum free basal EC medium supplemented with 1% BSA. Cells were then incubated in 300 μL of fresh basal EC medium supplemented with 1% BSA for 30 minutes at 37° C. to allow degradation of extracellular ATP released due to mechanical stimulation during washes. Endogenous ecto-nucleotidases were inhibited by incubating EC monolayers with 300 μM ARL 67156 (Tocris) for 30 minutes at 37° C. Cells were then stimulated with recombinant human TNFα (R&D Systems). For dose response experiments, ECs were incubated with 0.1, 1, 5, 10, 50, or 100 ng/mL recombinant TNFα for 30 minutes at 37° C. For time-course experiments, ECs were stimulated with 10 ng/mL recombinant TNFα for different time points up to 1 hour. In experiments where pharmacological inhibitors were employed, ECs were incubated with antagonists in parallel with ARL 67156 for 30 minutes. To inhibit TNFR1, ECs were incubated with the peptide antagonist of the receptor WP9QY (10 μM; Anaspec). […] Cx hemichannels were inhibited with lanthanum (La^3+; 100 μM; Sigma) and Panx1 channels were blocked with carbenoxolone (CBX; 50 μM; Sigma) and the inhibitory peptide ^10panx1 (200 μM; Genscript). […] The role of caspase activation was assessed by inhibition with the pan-caspase blocker Q-VD-OPh (100 μM; Sigma). Following stimulation with TNFα or vehicle, 150 μL of the cell supernatant was collected and immediately placed into pre-chilled 1.5 mL Eppendorf tubes on ice. All samples were centrifuged at 10,000×g for 5 minutes and 50 μL of each sample was transferred to a white, opaque 96-well plate. Using a FluoStar Omega luminometer, 50 μL of luciferin:luciferase reagent (ATP bioluminescence assay kit HSII; Roche) was injected into each well and luminescence was recorded following a 5s orbital mix. ATP concentration in each sample was calculated from a standard curve for all experiments. Data are presented as a % change in ATP release from baseline (i.e. unstimulated cells) and expressed as mean±SEM (n=5 independent experiments with triplicate measurements).

HSaVEC = test: In vitro ATP release assay (luciferin:luciferase), HSaVEC; format: cell-based, human; conditions: HSaVEC
Protocol: as §1

Cx43 hemichannels = test: Cell surface biotinylation after BFA, Cx43; format: cell-based, human; conditions: HUVEC and HSaVEC; BFA 5 μg/mL, 5 hour
Protocol: (§2) Cell surface biotinylation was performed as described previously^15. To deplete Cx43 hemichannels from the EC plasma membrane, venous and arterial ECs were grown to confluency in 6-well plates (Western blotting) or 24-well plates (ATP release) and treated with the vesicular exocytosis inhibitor brefeldin A (BFA; 5 μg/mL) for 5 hours at 37° C. Cells were washed once with cold 1× PBS and incubated with cold DMEM (without FBS) and 50 μM CBX at 4° C. for 30 minutes. CBX was added to prevent biotin from passing through Panx1 channels, which may label intracellular proteins. Cells were washed with PBS and incubated at 4° C. for 1 hour in cold PBS (1.5 mL/dish) containing EZ-link-sulfo-NHS-LC-biotin (1 mg/mL) and CBX (50 μM). The cells were washed again with PBS and lysed in PBS-T (PBS+0.5-1% Triton-X 100) containing protease inhibitors. Total protein was quantified using the BCA assay and equal amounts of protein were incubated with Streptavidin-agarose beads for 2 hours at 4° C. to pull down biotinylated (cell surface) proteins. Beads were then washed 5 times with 1× PBS-T, pelleted by centrifugation and proteins eluted by incubation with 5x sample buffer. Eluted proteins were subjected to SDS-PAGE and Western blotting for detection of Cx43 and Panx1.

Panx1 = test: Cell surface biotinylation after BFA, Panx1; format: cell-based, human; conditions: HUVEC and HSaVEC; BFA 5 μg/mL, 5 hour
Protocol: as §2

[1] = BFA 5 μg/mL for 5 hours, TNFα 10 ng/mL 30 min

Nc1ncnc2c1ncn2[C@@H]1O[C@H](COP(=O)(O)OP(=O)(O)OP(=O)(O)O)[C@@H](O)[C@H]1O [ATP, adenosine 5′ triphosphate]
VCAM1 upregulation in Panx1 KO mice venules (VCAM1): rescued

C[C@H]1CCC/C=C/[C@@H]2C[C@H](O)C[C@H]2[C@H](O)/C=C/C(=O)O1 [BFA, brefeldin A]
TNFα-induced ATP release after Cx hemichannel depletion (HUVEC; [1]): unaffected
effect of inhibitor on TNFα-induced ATP release (HUVEC; antagonist 30 min, WP9QY 10 μM, La3+ 100 μM, BFA 5 μg/mL, RuR 20 μM, PP2/PP3 10 μM, Q-VD-OPh 100 μM): ruled out the involvement
TNFα-induced ATP release after Cx hemichannel depletion (HSaVEC; [1]): unaffected
effect of inhibitor on TNFα-induced ATP release (HSaVEC; antagonist 30 min, WP9QY 10 μM, BFA 5 μg/mL, RuR 20 μM, PP2/PP3 10 μM): ruled out the involvement
expression of Cx43 at the EC surface (Cx43 hemichannels): decreased
expression of Panx1 at the EC surface (Panx1): without significantly altering
